In US9938250B2, “Antifibrotic effects of oxetanyl sulfoxides” (University of Pittsburgh—Of the Commonwealth System of …, priority 2015, dated 2018):
“Also recorded” adds a separate entry of the source.

Experiments:
[1] = test system: primary human fibroblasts; assay: TGFβ-induced fibrotic markers in primary human lung fibroblasts, immunoblotting; type: cell-based
Experimental: All tissues were obtained under a protocol approved by the Institutional Review Board of the University of Pittsburgh and with written consent. Primary human fibroblasts were cultured from the lung tissues of normal donors and patients undergoing lung transplantation. Fibroblasts were grown in Dulbecco's modified Eagle's medium (DMEM) supplemented with 10% fetal bovine serum (FBS), 100 U/mL penicillin, […] streptomycin and […] amphotericin B, and maintained at 37° C. in 5% CO2 humidified incubator. Three strains of normal primary human fibroblasts were plated on 6-well plates at a seeding density of 2.5×10^5 cells per well. Cells were serum starved for 6-16 h and treated with vehicle, TGFβ (10 ng/mL), MMS-350 (0.5 mg/mL), or TGFβ+MMS-350. Experiments using KRL507-031 were performed similarly. The cell lysates and culture supernatants were harvested 72 h after treatment and analyzed by immunoblotting.
Fibroblasts were rinsed with 1× PBS, scraped into 100 μL of 2×-sodium dodecyl sulfate (SDS) sample buffer, and boiled for 5 min. Equal protein amounts of cell lysates or supernatants were resolved on 10-12% sodium dodecyl sulfate polyacrylamide (SDS-PAGE) gels. Proteins were transferred to 0.2 μm nitrocellulose membranes (Whatman, Germany) and blocked with 5% nonfat dry milk in TBS-Tween 20 for 1 h at room temperature. Membranes were incubated with primary antibodies overnight at 4° C. followed by horseradish peroxidase-conjugated secondary antibodies for 1 h at room temperature. Signals were detected with enhanced chemiluminescence (Perkin Elmer Life Sciences, Inc., Boston, Mass.) and imaged with the FluorChem E digital imaging system from Protein Simple (Santa Clara, Calif.). Results were analyzed using the accompanying software Alphaview.

[2] = test system: C57BL/6J mice; assay: Bleomycin-induced pulmonary fibrosis in mice; type: in vivo
Experimental: Pulmonary fibrosis was induced in male 6- to 8-week-old C57BL/6J mice by intratracheal administration of 1 mg/kg of Bleomycin (Enzo) in a total volume of 50 uL. Mice were orally administered either 200 uL of PBS or MMS-350 (2%) on a daily basis and lungs were harvested after 5 and 14 days. Right lungs were fixed in 10% neutralized formalin and paraffin embedded. Left lungs were frozen for hydroxyproline assay and total RNA extraction.
Six-micrometer sections of paraffin-embedded mouse lung tissues were stained with H&E and images were taken on an Olympus Provis III microscope (Olympus America Inc.) with identical settings.
Hydroxyproline assay. The hydroxyproline content of mouse lung tissues obtained on day 14 was measured as described (41) and adjusted by lung weight.
Frozen mouse lung tissues obtained on day 5 were placed in 1.5 mL of RNase free Red Bead Lysis Kit tubes (Next Advance) containing 500 uL of TRIzol® Reagent (Life Technologies) and homogenized using BBX24 Bullet Blender® (Next Advance). Total RNA was extracted and purified with RNeasy Mini Kit (Qiagen). Reverse transcription was performed with SuperScript II (Invitrogen) followed by quantitative polymerase chain reaction (PCR) amplification with the TaqMan method (ABI Prism 7300; Applied Biosystems). Premixed PCR primers and TaqMan probes for mouse collagen 1A2 and GAPDH were obtained from Applied Biosystems. Gene expression levels were normalized to GAPDH and compared with the 2^−ΔΔCt method.

[3] = Aqueous solubility, statement only; type: physicochemical
[4] = discussion, comparison of DMSO with MMS-350; cited from earlier work
[5] = test system: experimental mice; conditions: cited from earlier work
[6] = test system: endothelial and alveolar type II cells; conditions: cells cultured from lung tissues of mice following thoracic irradiation; Kalash et al In vivo 2013; cited from earlier work
[7] = TGFβ 10 ng/mL + MMS-350 0.5 mg/mL vs TGFβ1 alone, 72 h

| SMILES | CTGF secreted protein [1, 7] | IGFBP3 (BP3) secreted protein [1, 7] | collagen 1α1 (Col1) protein [1, 7] | fibronectin (FN) protein [1, 7] | α-SMA protein (marker of fibroblast activation) [1, 7] | anti-fibrotic activity on delayed addition ([1]; compound added 30 min to 6 h after TGFβ) | Collagen α2I mRNA levels in lung ([2]; MMS-350 (2%) oral daily, day 5) | hydroxyproline levels in lung ([2]; MMS-350 (2%) oral daily, day 14) | lung fibrosis, histology (H&E) ([2]; bleomycin 1 mg/kg intratracheal, MMS-350 (2%) 200 uL oral daily, day 14) | overall survival ([2]; bleomycin + MMS-350, bleomycin-treated mice 62.5%) [%] | toxicity ([2]; given orally) | weight loss ([2]; vs mice treated with bleomycin alone, data not shown) | aqueous solubility [3] | log P (lipophilicity) [4] | mitigation of ionizing irradiation ([5]; Goff et al 2013) | radiation-induced pulmonary fibrosis ([5]; Kalash et al Radiat Res 2013) | survival of irradiated mice ([5]; Kalash et al Radiat Res 2013) | pro-fibrotic gene expression [6] |
| --- | --- | --- | --- | --- | --- | --- | --- | --- | --- | --- | --- | --- | --- | --- | --- | --- | --- | --- |
| CC1(C[S+]([O-])CC2(C)COC2)COC1 [MMS-350, 3,3′-Sulfinylbis(methylene)bis(3-methyloxetane)] | significantly decreased | significantly decreased | significantly decreased | significantly decreased | significantly decreased | profound anti-fibrotic activity | reduced | significant reduction | ameliorated fibrosis histologically | 87.5 | no toxicity | less weight loss | exquisite aqueous solubility; also recorded: exceptionally high aqueous solubility | −0.7 | mitigator of ionizing irradiation | ameliorate radiation-induced pulmonary fibrosis | increase survival | reduce pro-fibrotic gene expression |
| C[S+](C)[O-] [DMSO, dimethyl sulfoxide, reference compound] |  |  |  |  |  |  |  |  |  |  |  |  |  | -1.4 |  |  |  |  |
